In ChEMBL document CHEMBL1909046, “DrugMatrix in vitro pharmacology data”:

How the values were obtained:
Cytochrome P450 1A2 = biological target: T1, Cytochrome P450 1A2 (Homo sapiens, UniProt P05177); conditions: bti-tn-5b1-4
T1 sequence (P05177 whole entry): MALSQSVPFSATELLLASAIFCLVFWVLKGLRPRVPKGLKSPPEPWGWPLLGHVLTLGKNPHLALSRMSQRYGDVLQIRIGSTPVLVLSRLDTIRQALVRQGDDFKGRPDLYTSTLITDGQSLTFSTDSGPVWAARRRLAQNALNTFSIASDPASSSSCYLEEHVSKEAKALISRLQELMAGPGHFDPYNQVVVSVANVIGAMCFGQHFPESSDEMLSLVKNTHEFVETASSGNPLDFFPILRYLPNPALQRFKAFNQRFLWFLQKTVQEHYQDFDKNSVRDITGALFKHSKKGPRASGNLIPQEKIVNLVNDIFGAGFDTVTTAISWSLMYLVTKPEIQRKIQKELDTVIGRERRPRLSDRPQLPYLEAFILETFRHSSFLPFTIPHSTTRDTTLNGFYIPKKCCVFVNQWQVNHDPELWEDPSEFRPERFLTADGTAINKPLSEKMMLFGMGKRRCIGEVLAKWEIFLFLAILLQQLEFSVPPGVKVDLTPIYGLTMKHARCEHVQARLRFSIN

Cytochrome P450 2C9 = Cytochrome P450 2C9 (Homo sapiens, UniProt P11712); conditions: bti-tn-5b1-4
Sequence of Cytochrome P450 2C9 (P11712 whole entry): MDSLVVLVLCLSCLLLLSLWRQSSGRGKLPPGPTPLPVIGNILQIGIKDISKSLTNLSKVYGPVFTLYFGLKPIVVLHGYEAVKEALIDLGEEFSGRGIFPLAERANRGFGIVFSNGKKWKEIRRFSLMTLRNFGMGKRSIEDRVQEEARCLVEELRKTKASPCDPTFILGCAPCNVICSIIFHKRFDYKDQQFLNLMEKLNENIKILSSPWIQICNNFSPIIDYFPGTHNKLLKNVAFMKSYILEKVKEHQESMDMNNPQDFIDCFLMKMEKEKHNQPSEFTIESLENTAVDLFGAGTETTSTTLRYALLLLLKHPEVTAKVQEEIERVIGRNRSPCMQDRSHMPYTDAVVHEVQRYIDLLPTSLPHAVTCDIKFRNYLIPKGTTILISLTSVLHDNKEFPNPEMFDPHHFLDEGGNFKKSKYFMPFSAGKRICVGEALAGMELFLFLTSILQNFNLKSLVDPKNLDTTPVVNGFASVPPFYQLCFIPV
Note: in other assays of this panel Not Active means under 50% inhibition at 10 µM.

CCOC(=O)[C@H](CCc1ccccc1)N[C@@H](C)C(=O)N1[C@H](C(=O)O)C[C@@H]2CCC[C@@H]21
Not Active: IC50 (Cytochrome P450 1A2) | Ki (Cytochrome P450 1A2) | IC50 (Cytochrome P450 2C9) | Ki (Cytochrome P450 2C9)

CC(C)(C)NC(=O)[C@@H]1CN(Cc2cccnc2)CCN1C[C@@H](O)C[C@@H](Cc1ccccc1)C(=O)N[C@H]1c2ccccc2C[C@H]1O.O
Not Active: IC50 (Cytochrome P450 1A2) | Ki (Cytochrome P450 1A2) | IC50 (Cytochrome P450 2C9) | Ki (Cytochrome P450 2C9)

CC1(C)[C@H]2CC[C@]1(C)C(=O)C2 [(-)-CAMPHOR]
Not Active: IC50 (Cytochrome P450 1A2) | Ki (Cytochrome P450 1A2) | IC50 (Cytochrome P450 2C9) | Ki (Cytochrome P450 2C9)

CC(C)(C)NCC(O)c1ccc(O)c(CO)c1 (stereo not given) [ALBUTEROL]
Not Active: IC50 (Cytochrome P450 1A2) | Ki (Cytochrome P450 1A2) | IC50 (Cytochrome P450 2C9) | Ki (Cytochrome P450 2C9)

COc1ccc(CCN2CCC(Nc3nc4ccccc4n3Cc3ccc(F)cc3)CC2)cc1 [ASTEMIZOLE]
Not Active: IC50 (Cytochrome P450 1A2) | Ki (Cytochrome P450 1A2) | IC50 (Cytochrome P450 2C9) | Ki (Cytochrome P450 2C9)

CN(C)CCCN1c2ccccc2CCc2ccc(Cl)cc21 [CLOMIPRAMINE]
Not Active: IC50 (Cytochrome P450 1A2) | Ki (Cytochrome P450 1A2) | IC50 (Cytochrome P450 2C9) | Ki (Cytochrome P450 2C9)

O=C(CCCN1CCC(O)(c2ccc(Cl)cc2)CC1)c1ccc(F)cc1 [HALOPERIDOL]
Not Active: IC50 (Cytochrome P450 1A2) | Ki (Cytochrome P450 1A2) | IC50 (Cytochrome P450 2C9) | Ki (Cytochrome P450 2C9)

Oc1c(I)cc(I)c2cccnc12 [IODOQUINOL]
Not Active: IC50 (Cytochrome P450 1A2) | Ki (Cytochrome P450 1A2) | IC50 (Cytochrome P450 2C9) | Ki (Cytochrome P450 2C9)

NNC(=O)c1ccncc1 [ISONIAZID]
Not Active: IC50 (Cytochrome P450 1A2) | Ki (Cytochrome P450 1A2) | IC50 (Cytochrome P450 2C9) | Ki (Cytochrome P450 2C9)

CC1=C(/C=C/C(C)=C/C=C/C(C)=C\C(=O)O)C(C)(C)CCC1 [ISOTRETINOIN]
Not Active: IC50 (Cytochrome P450 1A2) | Ki (Cytochrome P450 1A2) | IC50 (Cytochrome P450 2C9) | Ki (Cytochrome P450 2C9)

CO[C@@H]1[C@@H](O[C@@H]2O[C@H](C)[C@@H](O[C@H]3C[C@@](C)(O)[C@@H](OC(=O)CC(C)C)[C@H](C)O3)[C@H](N(C)C)[C@H]2O)[C@@H](CC=O)C[C@@H](C)[C@@H](O)/C=C/C=C/C[C@@H](C)OC(=O)C[C@H]1O [KITASAMYCIN]
Not Active: IC50 (Cytochrome P450 1A2) | Ki (Cytochrome P450 1A2) | IC50 (Cytochrome P450 2C9) | Ki (Cytochrome P450 2C9)

Nc1nnc(-c2cccc(Cl)c2Cl)c(N)n1 [LAMOTRIGINE]
Not Active: IC50 (Cytochrome P450 1A2) | Ki (Cytochrome P450 1A2) | IC50 (Cytochrome P450 2C9) | Ki (Cytochrome P450 2C9)

CCC[C@@H]1C[C@@H](C(=O)N[C@@H]([C@H]2O[C@H](SC)[C@H](O)[C@@H](O)[C@H]2O)[C@@H](C)O)N(C)C1 [LINCOMYCIN]
Not Active: IC50 (Cytochrome P450 1A2) | Ki (Cytochrome P450 1A2) | IC50 (Cytochrome P450 2C9) | Ki (Cytochrome P450 2C9)

NCCCC[C@H](N[C@@H](CCc1ccccc1)C(=O)O)C(=O)N1CCC[C@H]1C(=O)O [LISINOPRIL ANHYDROUS]
Not Active: IC50 (Cytochrome P450 2C9) | Ki (Cytochrome P450 2C9)

NC(=O)c1ncn([C@@H]2O[C@H](CO)[C@@H](O)[C@H]2O)n1 [RIBAVIRIN]
Not Active: IC50 (Cytochrome P450 1A2) | Ki (Cytochrome P450 1A2)

Nc1ccc(S(=O)(=O)Nc2ccnn2-c2ccccc2)cc1 [SULFAPHENAZOLE]
Not Active: IC50 (Cytochrome P450 1A2) | Ki (Cytochrome P450 1A2)

CN[C@H](CC(C)C)C(=O)N[C@H]1C(=O)N[C@@H](CC(N)=O)C(=O)N[C@H]2C(=O)N[C@H]3C(=O)N[C@H](C(=O)N[C@H](C(=O)O)c4cc(O)cc(O)c4-c4cc3ccc4O)[C@H](O)c3ccc(c(Cl)c3)Oc3cc2cc(c3O[C@@H]2O[C@H](CO)[C@@H](O)[C@H](O)[C@H]2O[C@H]2C[C@](C)(N)[C@H](O)[C@H](C)O2)Oc2ccc(cc2Cl)[C@H]1O [VANCOMYCIN]
Not Active: IC50 (Cytochrome P450 1A2) | Ki (Cytochrome P450 1A2)
